This passage reports pKi and Ki results from publication PMC11516055, “From Static to Dynamic Structures: Improving Binding Affinity Prediction with Graph‐Based Deep Learning” (Advanced Science, 2024).

SMILES strings stand for the structures.

In the first test the target is HSP90.
Assay: not given
Also on record: method as in CASF-2016. The settings on record: HSP90 ligand in CASF-2016, reference structure for docking; ref CASF-2016; cited from earlier work.
Turning to `CCN(CC)C(=O)c1ccc(O)c(OC)c1` [2XDL], the pKi – broadly, −log10 of the Ki, conventionally taken in molar units – is 3.10.

Another test deals with T1, HSP90 (9-236) (Homo sapiens, UniProt P07900).
T1 construct: HSP90 (9‐236) was cross‐linked on the surface of the Series S Sensor Chip CM5
Description: Surface plasmon resonance (SPR) measurement of Ki on immobilised HSP90 (9-236). The test is classed as binding. The settings on record: Biacore S200, HSP90 (9-236) on CM5 chip, 1 × PBS with 5% DMSO. From the text: Next, we performed docking on HSP90 against the ChemBridge DIVERSet‐EXP library, which contains 50,000 small molecules that cover a diverse pharmacophore space. The docked conformers were obtained using Autodock Vina, a widely used open‐source docking software.^[ [16], [60] ^] The reference protein‐ligand structure (PDB ID: 2xdl) was chosen from the test set, CASF‐2016, to identify the binding pocket. Then, the docked poses were used to score and rank the molecules based on the Dynaformer predictions. After that, the top‐ranked compounds were filtered and visually inspected for prioritization, following the approach and criteria described in the literature^[ [7], [61] ^] (see Experimental Section for details). To ensure the fairness of prioritization, we created a pool consisting of molecules among the top 10% from both Dynaformer and the original scoring function in Autodock Vina. From the pool, 20 molecules were chosen without knowing their rankings. Finally, surface plasmon resonance (SPR) experiments were conducted for each of the 20 molecules to measure the inhibition constant K i . In total, 12 of the 20 molecules had measurable binding affinities.
Finally, the binding affinities of the above 20 molecules were experimentally validated. Surface plasmon resonance (SPR) measurements were performed by the Biacore S200 instrument (GE Healthcare Life Sciences). HSP90 (9‐236) was cross‐linked on the surface of the Series S Sensor Chip CM5 (GE Healthcare) at pH 4.0 by an amine coupling kit with 1‐ethyl‐(3‐dimethylaminopropyl)‐carbodiimide hydrochloride (EDC) and NHS. Experiments were performed in a running buffer (1 × PBS with 5% DMSO). Each compound was serially diluted by a factor of two in the running buffer. The compound solution flowed through the surface of the chip at a flow rate of […]. Sensorgrams were analyzed and generated by Biacore Evaluation Software.
In general terms: In SPR one partner is held on a chip, and binding of the other changes the refractive index at the surface.
Regarding `CC1=NNc2nc3c(c(=O)n(Cc4c(F)cccc4Cl)c(=O)n3C)n2C1` [compound 1], the affinity, expressed as Ki, was 0.207 µM. Consider `COc1cccc(C(=O)Nc2ccc(Oc3ccccc3)cc2)c1OC` [compound 2], for which the Ki (in general, the dissociation constant of the complex between target and ligand, obtained from inhibition or displacement) amounted to 0.517 µM. With `Cc1ccc(Cn2c(C)c(C)n3c4c(=O)[nH]c(=O)n(C)c4nc23)cc1` [compound 4], affinity was put at a Ki of 2.5 µM. Still for that read-out and setting: the result for `Nc1c(C(=O)c2ccccc2)sc2nc3c(cc12)CCCC3` [compound 5] reads 3.97 µM; that for `O=C(Nc1ccccc1)C1CC(=O)N(c2ccc3c4c(cccc24)CC3)C1` (stereo not shown) [compound 6], 4.5 µM; that for `Cc1cccc(C(=O)Nc2ccc3c(c2)OCCO3)c1[N+](=O)[O-]` [compound 7], 6.9 µM. Consider `O=c1[nH]c(=O)c2c(-c3cccc4ccccc34)ccnc2[nH]1` [compound 8], for which the Ki was 10 µM. `Cc1ccc(-c2nc3nc4ccccc4nc3n2CC2CCCO2)cc1` (stereo not shown) [compound 9] registered a Ki of 68.6 µM. `Cc1nn(-c2nc3ccccc3[nH]2)c2c1C(=O)CC(c1ccccc1O)C2` (stereo not shown) [compound 10] returned a Ki of 70 µM. As to `CCCC(=O)N1CCN(c2ccc(NC(=O)c3cccc(C)c3OC)cc2)CC1` [compound 11], the affinity corresponds to a Ki of 98 µM.

Another test concerns the target aspartyl protease β-secretase (BACE).
Assay: not given
More on the design: method as in PMID 22468999. The settings on record: experimental value, PDB ID 3udh; cited from earlier work.
As to `O=C1Nc2ccccc2[C@]12CCNC2` [3udh], the negative-log Ki (pKi) was 2.8.

In the next test the target is T315I Abl kinase domain.
Assay: not given
Also on record: method as in PMID 17804707. The settings on record: experimental value, PDB ID 2v7a, CASF-2016; cited from earlier work.
`CO[C@@H](C(=O)N1Cc2[nH]nc(NC(=O)c3ccc(N4CCN(C)CC4)cc3)c2C1)c1ccccc1` [2v7a]: the pKi is on record as 8.3.
